The values below come from ChEMBL document CHEMBL3991601, “The target landscape of clinical kinase drugs” (Science, 2017).

In experiment [1] the target is Rho-associated protein kinase 2 (Homo sapiens, UniProt O75116).
Experiment [2] concerns the target Cyclin-dependent kinase 6 (Homo sapiens, UniProt Q00534).
Experiment [3] deals with T1, Bifunctional phosphoribosylaminoimidazole carboxylase/phosphoribosylaminoimidazole succinocarboxamide synthetase (Homo sapiens, UniProt P22234).
T1 sequence (P22234 whole entry): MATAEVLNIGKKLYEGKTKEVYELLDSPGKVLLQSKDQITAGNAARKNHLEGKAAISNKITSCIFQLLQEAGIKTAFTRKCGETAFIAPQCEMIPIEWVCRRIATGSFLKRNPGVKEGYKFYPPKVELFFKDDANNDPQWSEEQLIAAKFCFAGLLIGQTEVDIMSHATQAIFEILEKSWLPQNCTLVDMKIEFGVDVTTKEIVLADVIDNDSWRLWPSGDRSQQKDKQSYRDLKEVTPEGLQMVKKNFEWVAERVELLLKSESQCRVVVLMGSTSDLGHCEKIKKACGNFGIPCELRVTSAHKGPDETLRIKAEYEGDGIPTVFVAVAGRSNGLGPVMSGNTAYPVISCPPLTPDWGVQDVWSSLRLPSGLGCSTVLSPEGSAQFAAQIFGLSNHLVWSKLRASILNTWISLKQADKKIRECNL

In experiment [4] the target is T2, Serine/threonine-protein kinase 4 (Homo sapiens, UniProt Q13043).
T2 sequence (Q13043 whole entry): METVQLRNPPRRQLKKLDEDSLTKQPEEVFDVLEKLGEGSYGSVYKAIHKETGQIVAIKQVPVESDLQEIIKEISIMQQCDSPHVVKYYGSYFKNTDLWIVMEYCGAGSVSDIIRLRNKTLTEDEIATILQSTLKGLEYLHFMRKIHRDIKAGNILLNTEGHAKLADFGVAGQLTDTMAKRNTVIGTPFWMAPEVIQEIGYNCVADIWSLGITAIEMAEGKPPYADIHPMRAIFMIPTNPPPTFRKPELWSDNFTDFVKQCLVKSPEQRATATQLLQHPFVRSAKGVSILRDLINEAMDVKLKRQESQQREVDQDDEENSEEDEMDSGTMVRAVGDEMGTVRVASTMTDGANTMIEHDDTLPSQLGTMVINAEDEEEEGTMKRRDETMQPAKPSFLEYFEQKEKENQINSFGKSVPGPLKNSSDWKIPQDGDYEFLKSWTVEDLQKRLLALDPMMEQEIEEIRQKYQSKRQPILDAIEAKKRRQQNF

Experiment [5] addresses Eukaryotic translation initiation factor 2-alpha kinase 1 (Homo sapiens, UniProt Q9BQI3).
The target in experiment [6] is T3, Serine/threonine-protein kinase Nek3 (Homo sapiens, UniProt P51956).
T3 sequence (P51956 whole entry): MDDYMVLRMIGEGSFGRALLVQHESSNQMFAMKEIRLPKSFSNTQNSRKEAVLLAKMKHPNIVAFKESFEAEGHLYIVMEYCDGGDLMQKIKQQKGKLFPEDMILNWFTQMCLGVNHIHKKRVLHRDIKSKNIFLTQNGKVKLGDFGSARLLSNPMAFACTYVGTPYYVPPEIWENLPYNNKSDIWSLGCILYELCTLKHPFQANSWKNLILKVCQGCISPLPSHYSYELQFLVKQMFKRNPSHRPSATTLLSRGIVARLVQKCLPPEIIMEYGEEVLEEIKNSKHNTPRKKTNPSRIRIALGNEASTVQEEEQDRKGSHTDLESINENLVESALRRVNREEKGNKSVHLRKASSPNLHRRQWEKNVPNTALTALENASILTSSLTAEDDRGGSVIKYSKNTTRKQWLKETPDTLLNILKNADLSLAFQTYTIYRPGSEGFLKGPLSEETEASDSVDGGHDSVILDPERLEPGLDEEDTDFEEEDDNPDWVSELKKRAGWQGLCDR

In experiment [7] the target is Serine/threonine-protein kinase MRCK beta (Homo sapiens, UniProt Q9Y5S2).
Serine/threonine-protein kinase MRCK beta, sequence (Q9Y5S2 whole entry): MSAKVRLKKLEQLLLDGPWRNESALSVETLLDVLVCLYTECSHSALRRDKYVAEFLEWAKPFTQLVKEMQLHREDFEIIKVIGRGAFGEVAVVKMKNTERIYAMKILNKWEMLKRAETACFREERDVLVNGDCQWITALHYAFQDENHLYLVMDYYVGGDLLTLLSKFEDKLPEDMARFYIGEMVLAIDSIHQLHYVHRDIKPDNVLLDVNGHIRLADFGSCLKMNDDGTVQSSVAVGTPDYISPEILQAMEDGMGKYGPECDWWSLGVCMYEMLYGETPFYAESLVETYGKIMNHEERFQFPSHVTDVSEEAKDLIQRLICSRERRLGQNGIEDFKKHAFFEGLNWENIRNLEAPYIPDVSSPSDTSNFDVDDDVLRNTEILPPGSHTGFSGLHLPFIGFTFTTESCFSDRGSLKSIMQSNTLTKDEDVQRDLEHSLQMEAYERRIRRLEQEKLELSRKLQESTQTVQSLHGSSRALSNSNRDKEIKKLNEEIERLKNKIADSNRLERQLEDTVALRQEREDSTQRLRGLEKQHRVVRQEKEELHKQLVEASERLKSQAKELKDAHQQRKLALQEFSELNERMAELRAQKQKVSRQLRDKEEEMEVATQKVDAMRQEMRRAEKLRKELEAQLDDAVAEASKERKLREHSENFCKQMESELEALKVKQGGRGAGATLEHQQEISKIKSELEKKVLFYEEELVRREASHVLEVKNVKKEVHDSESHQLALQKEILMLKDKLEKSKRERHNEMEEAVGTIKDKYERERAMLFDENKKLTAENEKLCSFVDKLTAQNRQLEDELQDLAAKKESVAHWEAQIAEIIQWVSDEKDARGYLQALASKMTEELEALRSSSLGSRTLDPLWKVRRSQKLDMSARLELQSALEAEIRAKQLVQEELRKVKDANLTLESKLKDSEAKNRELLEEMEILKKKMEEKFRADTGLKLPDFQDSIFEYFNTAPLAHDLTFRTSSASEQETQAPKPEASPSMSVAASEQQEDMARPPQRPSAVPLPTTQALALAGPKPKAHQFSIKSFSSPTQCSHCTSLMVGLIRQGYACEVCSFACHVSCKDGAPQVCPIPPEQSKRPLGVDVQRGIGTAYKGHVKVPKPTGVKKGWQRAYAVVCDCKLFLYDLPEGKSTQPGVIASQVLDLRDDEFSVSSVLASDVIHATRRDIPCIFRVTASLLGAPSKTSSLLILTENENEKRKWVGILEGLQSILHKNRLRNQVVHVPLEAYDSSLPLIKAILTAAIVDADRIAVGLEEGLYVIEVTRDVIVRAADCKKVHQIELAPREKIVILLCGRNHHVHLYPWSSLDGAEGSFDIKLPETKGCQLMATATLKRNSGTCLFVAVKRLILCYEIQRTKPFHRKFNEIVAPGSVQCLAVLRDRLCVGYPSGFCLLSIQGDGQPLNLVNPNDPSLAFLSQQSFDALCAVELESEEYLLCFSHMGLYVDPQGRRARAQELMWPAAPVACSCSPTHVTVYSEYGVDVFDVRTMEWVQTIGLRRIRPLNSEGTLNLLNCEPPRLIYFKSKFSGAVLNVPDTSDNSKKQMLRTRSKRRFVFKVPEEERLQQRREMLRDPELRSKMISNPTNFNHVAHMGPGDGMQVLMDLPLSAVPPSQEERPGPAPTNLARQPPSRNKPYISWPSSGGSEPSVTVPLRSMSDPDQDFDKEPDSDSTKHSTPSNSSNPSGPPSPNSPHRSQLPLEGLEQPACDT
In experiment [8] the target is T4, Serine/threonine-protein kinase TAO3 (Homo sapiens, UniProt Q9H2K8).
T4 sequence (Q9H2K8 whole entry): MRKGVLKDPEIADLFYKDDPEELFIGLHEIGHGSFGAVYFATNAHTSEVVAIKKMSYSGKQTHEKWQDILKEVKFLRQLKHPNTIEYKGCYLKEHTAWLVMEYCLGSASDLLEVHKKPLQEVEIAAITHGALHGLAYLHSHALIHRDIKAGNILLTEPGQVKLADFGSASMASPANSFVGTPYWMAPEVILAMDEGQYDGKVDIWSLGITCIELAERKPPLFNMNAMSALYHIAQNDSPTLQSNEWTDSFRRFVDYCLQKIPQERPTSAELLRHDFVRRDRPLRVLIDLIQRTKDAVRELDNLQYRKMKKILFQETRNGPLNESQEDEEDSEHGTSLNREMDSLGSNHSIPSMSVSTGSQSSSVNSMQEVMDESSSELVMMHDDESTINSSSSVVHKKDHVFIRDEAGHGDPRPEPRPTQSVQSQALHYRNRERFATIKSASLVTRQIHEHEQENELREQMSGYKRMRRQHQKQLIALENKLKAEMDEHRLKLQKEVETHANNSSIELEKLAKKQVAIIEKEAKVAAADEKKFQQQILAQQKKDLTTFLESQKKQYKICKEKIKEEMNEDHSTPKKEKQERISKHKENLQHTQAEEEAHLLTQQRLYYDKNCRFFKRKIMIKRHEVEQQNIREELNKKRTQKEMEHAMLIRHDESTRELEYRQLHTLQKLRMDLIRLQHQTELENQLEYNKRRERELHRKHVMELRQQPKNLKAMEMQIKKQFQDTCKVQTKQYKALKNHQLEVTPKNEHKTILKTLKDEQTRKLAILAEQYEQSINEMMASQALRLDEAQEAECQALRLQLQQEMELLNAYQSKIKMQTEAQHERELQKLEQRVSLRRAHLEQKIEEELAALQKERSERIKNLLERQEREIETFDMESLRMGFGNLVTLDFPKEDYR

The target in experiment [9] is T5, Ras-related protein Rab-10 (Homo sapiens, UniProt P61026).
T5 sequence (P61026 whole entry): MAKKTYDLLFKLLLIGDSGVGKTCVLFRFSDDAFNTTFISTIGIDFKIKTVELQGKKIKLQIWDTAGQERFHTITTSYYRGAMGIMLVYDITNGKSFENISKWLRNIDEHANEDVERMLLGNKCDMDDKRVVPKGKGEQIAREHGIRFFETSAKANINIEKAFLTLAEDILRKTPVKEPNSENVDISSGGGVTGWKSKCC

The target of experiment [10] is Ribosomal protein S6 kinase alpha-4 (Homo sapiens, UniProt O75676).
Ribosomal protein S6 kinase alpha-4, sequence (O75676 whole entry): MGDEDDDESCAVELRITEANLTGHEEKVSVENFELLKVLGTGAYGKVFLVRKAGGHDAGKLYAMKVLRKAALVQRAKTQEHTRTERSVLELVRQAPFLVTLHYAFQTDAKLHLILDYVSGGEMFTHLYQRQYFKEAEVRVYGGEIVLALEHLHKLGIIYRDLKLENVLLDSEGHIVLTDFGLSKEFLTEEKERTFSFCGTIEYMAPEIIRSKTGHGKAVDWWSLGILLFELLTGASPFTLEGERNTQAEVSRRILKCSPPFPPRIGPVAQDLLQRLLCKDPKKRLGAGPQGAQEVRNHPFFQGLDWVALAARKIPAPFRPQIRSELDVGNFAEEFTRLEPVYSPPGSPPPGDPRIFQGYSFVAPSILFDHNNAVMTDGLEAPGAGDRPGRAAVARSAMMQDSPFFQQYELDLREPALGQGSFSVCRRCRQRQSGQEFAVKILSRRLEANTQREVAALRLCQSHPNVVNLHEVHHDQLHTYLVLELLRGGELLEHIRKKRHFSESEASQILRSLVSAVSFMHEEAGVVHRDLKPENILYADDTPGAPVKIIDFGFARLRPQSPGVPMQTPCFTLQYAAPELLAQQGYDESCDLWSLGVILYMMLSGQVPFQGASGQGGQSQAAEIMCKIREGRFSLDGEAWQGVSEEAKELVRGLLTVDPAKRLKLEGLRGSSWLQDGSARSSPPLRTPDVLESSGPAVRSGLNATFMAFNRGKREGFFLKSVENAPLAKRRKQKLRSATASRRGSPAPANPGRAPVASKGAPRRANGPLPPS
Experiment [11] concerns the target Mitogen-activated protein kinase kinase kinase kinase 5 (Homo sapiens, UniProt Q9Y4K4).

Activity calls are given as the source filed them. For most assays here, no stated cut-off is given here; in the data, actives have a measured Kd and inactives only a lower limit. A value given as a limit tells only on which side of the number the result lay.

Mitogen-activated protein kinase kinase kinase kinase 5, sequence (Q9Y4K4 whole entry): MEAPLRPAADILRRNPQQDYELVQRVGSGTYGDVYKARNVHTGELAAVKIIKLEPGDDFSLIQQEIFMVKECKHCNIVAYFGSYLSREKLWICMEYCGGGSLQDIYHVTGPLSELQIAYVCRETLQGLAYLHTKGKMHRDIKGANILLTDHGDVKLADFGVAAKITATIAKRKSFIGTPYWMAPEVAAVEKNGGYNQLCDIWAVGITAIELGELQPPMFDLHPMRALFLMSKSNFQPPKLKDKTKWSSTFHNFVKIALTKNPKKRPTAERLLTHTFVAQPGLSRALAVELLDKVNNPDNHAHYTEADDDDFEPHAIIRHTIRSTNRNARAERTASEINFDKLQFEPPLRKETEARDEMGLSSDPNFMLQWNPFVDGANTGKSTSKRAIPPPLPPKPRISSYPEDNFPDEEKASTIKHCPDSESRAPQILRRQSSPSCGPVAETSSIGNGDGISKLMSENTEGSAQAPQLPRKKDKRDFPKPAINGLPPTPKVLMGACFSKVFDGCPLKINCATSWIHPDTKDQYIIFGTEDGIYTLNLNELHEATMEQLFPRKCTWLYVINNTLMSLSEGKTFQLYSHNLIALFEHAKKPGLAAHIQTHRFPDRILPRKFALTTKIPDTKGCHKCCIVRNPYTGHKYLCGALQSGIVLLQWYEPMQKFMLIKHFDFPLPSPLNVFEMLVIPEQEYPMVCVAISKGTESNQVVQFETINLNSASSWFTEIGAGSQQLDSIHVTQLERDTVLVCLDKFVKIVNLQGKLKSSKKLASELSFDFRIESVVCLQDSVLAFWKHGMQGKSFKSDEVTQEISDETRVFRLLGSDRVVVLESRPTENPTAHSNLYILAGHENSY
Rho-associated protein kinase 2, sequence (O75116 whole entry): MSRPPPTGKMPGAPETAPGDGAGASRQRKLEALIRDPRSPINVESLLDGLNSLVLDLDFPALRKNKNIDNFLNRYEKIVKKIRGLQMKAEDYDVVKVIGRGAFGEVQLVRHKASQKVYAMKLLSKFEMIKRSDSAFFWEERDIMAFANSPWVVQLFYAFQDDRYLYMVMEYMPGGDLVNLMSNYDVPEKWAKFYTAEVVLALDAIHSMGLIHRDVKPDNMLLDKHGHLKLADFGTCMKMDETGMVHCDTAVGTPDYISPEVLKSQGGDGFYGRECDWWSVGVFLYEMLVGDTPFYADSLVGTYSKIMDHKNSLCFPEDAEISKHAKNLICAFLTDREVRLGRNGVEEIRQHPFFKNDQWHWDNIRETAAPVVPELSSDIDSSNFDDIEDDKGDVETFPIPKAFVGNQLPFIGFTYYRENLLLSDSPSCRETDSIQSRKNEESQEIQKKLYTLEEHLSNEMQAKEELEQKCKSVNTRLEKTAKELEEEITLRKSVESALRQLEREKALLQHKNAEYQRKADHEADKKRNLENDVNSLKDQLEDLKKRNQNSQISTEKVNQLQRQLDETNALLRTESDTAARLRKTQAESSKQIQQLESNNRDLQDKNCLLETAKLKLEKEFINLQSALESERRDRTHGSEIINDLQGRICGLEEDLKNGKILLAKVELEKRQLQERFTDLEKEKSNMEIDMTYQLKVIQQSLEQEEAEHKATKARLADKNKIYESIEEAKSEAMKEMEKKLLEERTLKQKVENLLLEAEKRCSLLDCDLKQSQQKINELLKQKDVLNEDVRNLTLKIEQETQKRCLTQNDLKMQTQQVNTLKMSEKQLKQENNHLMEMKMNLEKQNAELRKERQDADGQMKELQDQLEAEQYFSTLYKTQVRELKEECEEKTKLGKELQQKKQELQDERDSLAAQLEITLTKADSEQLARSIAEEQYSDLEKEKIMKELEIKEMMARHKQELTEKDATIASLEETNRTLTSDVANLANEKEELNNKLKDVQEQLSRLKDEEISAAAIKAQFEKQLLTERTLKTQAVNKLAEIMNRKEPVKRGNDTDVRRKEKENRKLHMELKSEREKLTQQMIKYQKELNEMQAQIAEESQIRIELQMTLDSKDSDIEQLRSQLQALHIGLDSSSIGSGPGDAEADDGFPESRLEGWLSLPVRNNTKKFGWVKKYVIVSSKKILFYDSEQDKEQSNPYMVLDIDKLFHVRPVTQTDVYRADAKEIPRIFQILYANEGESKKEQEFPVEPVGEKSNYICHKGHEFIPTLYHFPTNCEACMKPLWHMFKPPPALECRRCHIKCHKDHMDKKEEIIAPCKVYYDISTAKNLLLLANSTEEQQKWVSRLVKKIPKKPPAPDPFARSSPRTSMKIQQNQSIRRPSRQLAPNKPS
Cyclin-dependent kinase 6, sequence (Q00534 whole entry): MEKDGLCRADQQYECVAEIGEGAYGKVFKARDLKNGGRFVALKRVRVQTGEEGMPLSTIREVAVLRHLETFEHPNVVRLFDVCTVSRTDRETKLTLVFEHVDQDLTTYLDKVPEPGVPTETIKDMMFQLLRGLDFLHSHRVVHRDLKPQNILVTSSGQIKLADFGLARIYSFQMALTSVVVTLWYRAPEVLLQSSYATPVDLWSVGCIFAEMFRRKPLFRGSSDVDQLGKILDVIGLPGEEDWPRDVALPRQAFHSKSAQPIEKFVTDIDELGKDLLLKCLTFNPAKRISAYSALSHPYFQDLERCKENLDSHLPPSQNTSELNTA

Usually Kd stands for the free concentration of one partner at which half of the binding sites on the other are occupied at equilibrium, for simple one-to-one binding. On to `COc1cc(N2CCC(N3CCN(C)CC3)CC2)ccc1Nc1ncnc(Nc2ccccc2S(=O)(=O)C(C)C)n1` [ASP-3026], for which the Kd in [1], in experiment [2], in experiment [3], in experiment [4], in experiment [5] and in experiment [6] was > 30 µM (inactive) throughout. The Kd in [7], in experiment [8], in experiment [9], in experiment [10] and in [11] was > 30 µM (inactive) throughout.

For the compound `Cc1cc([C@@H](C)Nc2ccccc2C(=O)O)c2nc(N3CCOCC3)cc(=O)n2c1` [AZD-6482], the Kd in experiment [1], in experiment [2], in experiment [3], in experiment [4], in experiment [5] and in [6] was > 30 µM (inactive) throughout. Besides, the Kd in experiment [7], in [8], in experiment [9], in [10] and in [11] was > 30 µM (inactive) each time.

For `CN1CCC(CNc2ccc3ncc(-c4cccc(OC(F)(F)F)c4)n3n2)CC1` [SGI-1776], the Kd in experiment [1], in experiment [2], in experiment [3], in experiment [4], in experiment [5] and in [6] was > 30 µM (inactive) each time. The Kd in experiment [7], in [8], in [9], in experiment [10] and in [11] was > 30 µM (inactive) each time.

Regarding `CC(C)Nc1cc(-c2c[nH]c(C(=O)N[C@H](CO)c3cccc(Cl)c3)c2)c(Cl)cn1` [ULIXERTINIB], the Kd in experiment [1], in experiment [2], in experiment [3], in experiment [4], in [5] and in experiment [6] was > 30 µM (inactive) each time. Moreover, the Kd in [7], in experiment [8], in [9], in [10] and in [11] was > 30 µM (inactive) throughout.

Regarding `O=c1sn(-c2cccc3ccccc23)c(=O)n1Cc1ccccc1` [TIDEGLUSIB], the Kd in experiment [1], in experiment [2], in experiment [3], in [4], in experiment [5] and in [6] was > 30 µM (inactive) each time. Also, the Kd in experiment [7], in [8], in experiment [9], in [10] and in [11] was > 30 µM (inactive) in each case.

`CNC(=O)c1cc(Oc2ccc(NC(=O)Nc3ccc(Cl)c(C(F)(F)F)c3)c(F)c2)ccn1` [REGORAFENIB]: the Kd in [1], in experiment [2], in [3], in [4], in [5] and in experiment [6] was > 30 µM (inactive) in each case. Also, the Kd in experiment [7], in [8], in experiment [9], in [10] and in [11] was > 30 µM (inactive) in each case.

In the case of `Cc1ccc(-n2nc(C(C)(C)C)cc2NC(=O)NCc2cc(F)ccc2Oc2ccc3c(cnn3CCO)c2)cc1` [PEXMETINIB], the Kd in experiment [1], in [2], in experiment [3], in [4], in experiment [5] and in [6] was > 30 µM (inactive) each time. In addition, the Kd in [7], in experiment [8], in experiment [9], in experiment [10] and in experiment [11] was > 30 µM (inactive) in each case.

With `CCN1CCN(Cc2ccc(-c3cc4c(N[C@H](C)c5ccccc5)ncnc4[nH]3)cc2)CC1` [AEE-788], the Kd in experiment [1] was > 30 µM (inactive); in experiment [2], > 30 µM (inactive); in [3], > 30 µM (inactive); in [4], > 30 µM (inactive); in experiment [5], > 30 µM (inactive); in experiment [6], 38.1 µM (active). In addition, the Kd is > 30 µM (inactive) in [7]; > 30 µM (inactive) in [8]; > 30 µM (inactive) in [9]; > 30 µM (inactive) in experiment [10]; 50.2 µM (active) in experiment [11].

Regarding `Cc1ccc(NC(=O)c2ccc(CN3CC[C@H](N(C)C)C3)c(C(F)(F)F)c2)cc1Nc1nccc(-c2cncnc2)n1` [BAFETINIB], the Kd in experiment [1], in experiment [2], in [3], in experiment [4], in [5] and in experiment [6] was > 30 µM (inactive) each time. For the same compound, the Kd in experiment [7], in [8], in experiment [9], in experiment [10] and in [11] was > 30 µM (inactive) throughout.
